Biological target: T1, GST-VP8* of P[16] murine RVA EMcN (Murine rotavirus EMcN, UniProt Q6WVQ1)
T1 construct: gene VP4; VP8* core aa 46-231, cut from VP4 precursor; N-terminal GST fusion kept; E. coli BL21
Test: CFG glycan array, GST-VP8* detected with fluorescent anti-GST antibody (RFU)
Assay type: binding
Conditions: immobilised glycan

Compound: OC[C@H]1O[C@H](O[C@H]2[C@@H](O)[C@@H](CO)O[C@@H](O[C@H]3[C@H](O)[C@@H](O)C(O)O[C@@H]3CO)[C@@H]2O)[C@H](O)[C@@H](O)[C@H]1O (stereo partly shown) [compound 117, Galα1-3Galβ1-4Glc]
- CFG glycan array, GST-VP8* detected with fluorescent anti-GST antibody (RFU): Four strains exhibited strongest binding signals to the αGal containing glycans

Reference: paper PMC7473324, “Histo-blood group antigens as divergent factors of groups A and C rotaviruses circulating in humans and different animal species” (Emerging Microbes & Infections, 2020)
